Results on 20 molecules are retold here after the supplement of paper PMC11368000.

One experiment relates to 1535 (donor line of iPSC-derived cardiomyocytes). In words: POD (EC05) for increase in Ca2+ transient decay-to-rise ratio (QT prolongation) vs vehicle; higher = less potent (higher point of departure). The settings on record: exposure time: 90 min. The method, then: (§1)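 Human iPSC-derived cardiomyocytes from 16 donors were exposed for 90 min at 37 °C to each PFAS at 0.1, 1, 10 and 100 µM in 0.5% DMSO, 384-well plates. Kinetic Ca2+ flux (FLIPR) and Hoechst nuclei counts were normalised to vehicle wells and fitted with a hierarchical Bayesian Hill model to give donor-specific PODs: EC05 for beat-rate increase or decrease and for decay-to-rise ratio increase (QT proxy), EC95 for peak-frequency loss (asystole), EC10 for total cell number loss. 0.03 µM is the lower bound.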
Regarding `NC(=O)C(F)(F)C(F)(F)C(F)(F)C(F)F`, the POD vs vehicle is above 100 µM.
Turning to `OCC(O)CC(F)(F)C(F)(F)C(F)(F)C(F)(F)C(F)(F)C(F)(F)C(F)(F)C(F)(F)F` (centres undefined) [1-(Perfluorofluorooctyl)propane-2,3-diol], the POD vs vehicle is above 100 µM.
For the molecule `CC(O)C(F)(F)C(F)(F)F` (centres undefined) [1-Pentafluoroethylethanol], the POD vs vehicle was above 100 µM.
As for `OCC(F)(F)C(F)(F)C(F)(F)C(F)F` [1H,1H,5H-Perfluoropentanol], the POD vs vehicle is above 100 µM.
For `O=S(=O)(OCC(F)(F)F)C(F)(F)C(F)(F)C(F)(F)C(F)(F)F` [2,2,2-Trifluoroethyl_perfluorobutanesulfonate], the POD vs vehicle was above 100 µM.
Regarding `O=C(O)C(F)(F)C(F)(F)C(F)F` [2,2,3,3,4,4-Hexafluorobutanoic_acid], the POD vs vehicle was above 100 µM.
Consider `NC(O)(C(F)(F)F)C(F)(F)F` [2-Aminohexafluoropropan-2-ol], for which the POD vs vehicle is above 100 µM.
On the same count and under the same terms, the same measure for `O=C(O)CCC(F)(F)C(F)(F)C(F)(F)C(F)(F)C(F)(F)F` [2H,2H,3H,3H-Perfluorooctanoic_acid]: above 100 µM.
`O=C(O)C=C(C(F)(F)F)C(F)(F)F` [3,3-Bis(trifluoromethyl)-2-propenoic_acid]: the POD vs vehicle is above 100 µM.
On the same count and under the same terms, under `O=C(O)C=CC(F)(C(F)(F)F)C(F)(F)F` [3-(Perfluoroisopropyl)-2-propenoic_acid] stands above 100 µM.
Regarding `O=C(O)CCC(F)(F)C(F)(F)C(F)(F)C(F)(F)C(F)(F)C(F)(F)C(F)(F)F` [3-Perfluoroheptylpropanoic_acid], the POD vs vehicle was above 100 µM.
In the case of `O=C(O)CCC(F)(F)C(F)(F)C(F)(F)F` [3:3 Fluorotelomer carboxylic acid], the POD vs vehicle was above 100 µM.
With `O=C(CC(=O)C(F)(F)C(F)(F)F)C(F)(F)F` [3H,3H-Perfluoro-2,4-hexanedione], the POD vs vehicle was above 100 µM.
`OCCC(F)(F)C(F)(F)C(F)(F)C(F)(F)F` [4:2 Fluorotelomer alcohol]: the POD vs vehicle is above 100 µM.
As to `O=S(=O)(O)CCC(F)(F)C(F)(F)C(F)(F)C(F)(F)F` [4:2 Fluorotelomer sulfonic acid], the POD vs vehicle is above 100 µM.
Take `OCC(F)(F)C(F)(F)C(F)(F)C(F)(F)C(F)(F)C(F)(F)F` [6:1 Fluorotelomer alcohol]: the POD vs vehicle is above 100 µM.
Regarding `OCCC(F)(F)C(F)(F)C(F)(F)C(F)(F)C(F)(F)C(F)(F)F` [6:2 Fluorotelomer alcohol], the POD vs vehicle is above 100 µM.
`O=S(=O)(O)CCC(F)(F)C(F)(F)C(F)(F)C(F)(F)C(F)(F)C(F)(F)F` [6:2 Fluorotelomer sulfonic acid]: the POD vs vehicle is above 100 µM.
For `OCCC(F)(F)C(F)(F)C(F)(F)C(F)(F)C(F)(F)C(F)(F)C(F)(F)C(F)(F)F` [8:2 Fluorotelomer alcohol], the POD vs vehicle was above 100 µM.
On the same count and under the same terms, under `CN(CCO)S(=O)(=O)C(F)(F)C(F)(F)C(F)(F)C(F)(F)C(F)(F)C(F)(F)C(F)(F)C(F)(F)F` [N-Methyl-N-(2-hydroxyethyl)perfluorooctanesulfonamide] stands above 100 µM.

The subject of another experiment is 1565 (donor line of iPSC-derived cardiomyocytes). The experiment is described as above. The settings on record: exposure time: 90 min. The procedure:
as §1
Turning to `NC(=O)C(F)(F)C(F)(F)C(F)(F)C(F)F`, the POD vs vehicle stood at 1.78 µM.
As to `OCC(O)CC(F)(F)C(F)(F)C(F)(F)C(F)(F)C(F)(F)C(F)(F)C(F)(F)C(F)(F)F` (centres undefined) [1-(Perfluorofluorooctyl)propane-2,3-diol], the POD vs vehicle was above 100 µM.
Regarding `CC(O)C(F)(F)C(F)(F)F` (centres undefined) [1-Pentafluoroethylethanol], the POD vs vehicle was above 100 µM.
Still for that read-out and setting: the same measure for `OCC(F)(F)C(F)(F)C(F)(F)C(F)F` [1H,1H,5H-Perfluoropentanol]: above 100 µM.
The same measure, in the same setting: under `O=S(=O)(OCC(F)(F)F)C(F)(F)C(F)(F)C(F)(F)C(F)(F)F` [2,2,2-Trifluoroethyl_perfluorobutanesulfonate] stands above 100 µM.
`O=C(O)C(F)(F)C(F)(F)C(F)F` [2,2,3,3,4,4-Hexafluorobutanoic_acid]: the POD vs vehicle is above 100 µM.
`NC(O)(C(F)(F)F)C(F)(F)F` [2-Aminohexafluoropropan-2-ol]: the POD vs vehicle is above 100 µM.
In the case of `O=C(O)CCC(F)(F)C(F)(F)C(F)(F)C(F)(F)C(F)(F)F` [2H,2H,3H,3H-Perfluorooctanoic_acid], the POD vs vehicle was above 100 µM.
Consider `O=C(O)C=C(C(F)(F)F)C(F)(F)F` [3,3-Bis(trifluoromethyl)-2-propenoic_acid], for which the POD vs vehicle is above 100 µM.
In the case of `O=C(O)C=CC(F)(C(F)(F)F)C(F)(F)F` [3-(Perfluoroisopropyl)-2-propenoic_acid], the POD vs vehicle is above 100 µM.
The same measure, in the same setting: the same measure for `O=C(O)CCC(F)(F)C(F)(F)C(F)(F)C(F)(F)C(F)(F)C(F)(F)C(F)(F)F` [3-Perfluoroheptylpropanoic_acid]: above 100 µM.
On to `O=C(O)CCC(F)(F)C(F)(F)C(F)(F)F` [3:3 Fluorotelomer carboxylic acid], for which the POD vs vehicle was above 100 µM.
With `O=C(CC(=O)C(F)(F)C(F)(F)F)C(F)(F)F` [3H,3H-Perfluoro-2,4-hexanedione], the POD vs vehicle is above 100 µM.
For the molecule `OCCC(F)(F)C(F)(F)C(F)(F)C(F)(F)F` [4:2 Fluorotelomer alcohol], the POD vs vehicle is above 100 µM.
`O=S(=O)(O)CCC(F)(F)C(F)(F)C(F)(F)C(F)(F)F` [4:2 Fluorotelomer sulfonic acid]: the POD vs vehicle was above 100 µM.
For the molecule `OCC(F)(F)C(F)(F)C(F)(F)C(F)(F)C(F)(F)C(F)(F)F` [6:1 Fluorotelomer alcohol], the POD vs vehicle is above 100 µM.
Regarding `OCCC(F)(F)C(F)(F)C(F)(F)C(F)(F)C(F)(F)C(F)(F)F` [6:2 Fluorotelomer alcohol], the POD vs vehicle was above 100 µM.
Same read-out and setting: under `O=S(=O)(O)CCC(F)(F)C(F)(F)C(F)(F)C(F)(F)C(F)(F)C(F)(F)F` [6:2 Fluorotelomer sulfonic acid] stands above 100 µM; under `OCCC(F)(F)C(F)(F)C(F)(F)C(F)(F)C(F)(F)C(F)(F)C(F)(F)C(F)(F)F` [8:2 Fluorotelomer alcohol], above 100 µM; under `CN(CCO)S(=O)(=O)C(F)(F)C(F)(F)C(F)(F)C(F)(F)C(F)(F)C(F)(F)C(F)(F)C(F)(F)F` [N-Methyl-N-(2-hydroxyethyl)perfluorooctanesulfonamide], above 100 µM.

The next experiment relates to 1309 (donor line of iPSC-derived cardiomyocytes). The description is as above. The settings on record: exposure time: 90 min. The procedure:
as §1
As for `NC(=O)C(F)(F)C(F)(F)C(F)(F)C(F)F`, the POD vs vehicle is above 100 µM.
Take `OCC(O)CC(F)(F)C(F)(F)C(F)(F)C(F)(F)C(F)(F)C(F)(F)C(F)(F)C(F)(F)F` (centres undefined) [1-(Perfluorofluorooctyl)propane-2,3-diol]: the POD vs vehicle is above 100 µM.
Consider `CC(O)C(F)(F)C(F)(F)F` (centres undefined) [1-Pentafluoroethylethanol], for which the POD vs vehicle was above 100 µM.
As for `OCC(F)(F)C(F)(F)C(F)(F)C(F)F` [1H,1H,5H-Perfluoropentanol], the POD vs vehicle was above 100 µM.
As for `O=S(=O)(OCC(F)(F)F)C(F)(F)C(F)(F)C(F)(F)C(F)(F)F` [2,2,2-Trifluoroethyl_perfluorobutanesulfonate], the POD vs vehicle was above 100 µM.
On the same count and under the same terms, under `O=C(O)C(F)(F)C(F)(F)C(F)F` [2,2,3,3,4,4-Hexafluorobutanoic_acid] stands above 100 µM.
`NC(O)(C(F)(F)F)C(F)(F)F` [2-Aminohexafluoropropan-2-ol]: the POD vs vehicle was above 100 µM.
`O=C(O)CCC(F)(F)C(F)(F)C(F)(F)C(F)(F)C(F)(F)F` [2H,2H,3H,3H-Perfluorooctanoic_acid]: the POD vs vehicle was above 100 µM.
`O=C(O)C=C(C(F)(F)F)C(F)(F)F` [3,3-Bis(trifluoromethyl)-2-propenoic_acid]: the POD vs vehicle was above 100 µM.
